According to patent publication US12643882B2, “Inhibitors of human respiratory syncytial virus and metapneumovirus” (priority 2022, dated 2026):
Read-outs that look alike come from different tables or passages of the source.

Columns and labels:
[1] = test system: RSV-A2-GFP virus; assay: microbe, parasite or virus in culture; type: cell-based, Human Respiratory Syncytial Virus
Method: To set up the assay, ARF vials were thawed in a 37° C. water bath and a control compound was resuspended in assay media DMEM (Dulbecco's Modified Eagle Medium) containing 2% FBS, 100 U/ml Penicillin-Streptomycin.
GFP sequence was derived from pJTI™ R4 Dest CMV N-EmGFP pA Vector (Invitrogen) and was cloned into the intergenic sequence between wild-type RSV-A2 P and M genes using standard recombineering techniques. Recombinant RSV-A2-GFP was propagated in Hep2 cells (human cells contain HeLa marker chromosomes and were derived via HeLa contamination, ATCC CCL-23) with a Multiplicity of Infection (MOI) of 0.1. Virus was harvested 3 days after infection by collecting all culture material and then freeze-thawing the mixture for 5 min. Working virus stocks were generated by thawing frozen viral cultures in 37° C. water bath, which were centrifuged at 218 g for 15 min at 4° C. 1/10 of 10×SPG (Biological Industries 06-3061-01-5A) were added and then mixed. The supernatant was aliquoted, frozen in liquid nitrogen, and then transferred to a −80° C. freezer for storage. Virus titer was determined by automated plaque assay in HEp-2 cells following methods described previously (Wen Z. et al.; 2019).
Calu-1 cells were purchased from ATCC (Cat #HTB-54) and were expanded in growth media (DMEM containing 10% FBS, 100 U/ml Penicillin-Streptomycin). To make ARF, cell culture media was removed and discarded and the cell layer was briefly rinsed with PBS to remove serum. 2.5 mL of TrypLE Express solution were added and cells incubated until dislodged, to which growth media was added and the cells were resuspended by gentle pipetting. Cells were counted for concentration and viability as determined by ViCell. Cells were centrifuged at RT, 300 g for 5 minutes to pellet cells. The supernatant was gently aspirated and the pellet was flicked to loosen cells. Cells were resuspended in an appropriate volume of freezing medium (DMEM containing 10% DMSO, 10% FBS, 100 U/ml Penicillin-Streptomycin) to achieve a concentration of 5×10^6 cells/mL. 1 mL aliquots of the cell suspension were transferred to freezing vials. The vials were put into an upright container in a −80° C. freezer overnight before transferring vials to liquid nitrogen for storage.
Assay ready freezedown (ARF, generation described separately) Calu-1 cells (ATCC HTB-54) were used. Compound plates were prepared by dispensing compounds dissolved in DMSO into the wells of a 384 well Corning® 3985 plate with an ECHO acoustic dispenser and compounds were tested in 10-point serial 3-fold dilution. […] To set up the assay, ARF vial(s) were thawed in a 37° C. water bath and were then resuspended into assay media (DMEM containing 2% FBS, 100 U/ml Penicillin-Streptomycin). Cells were counted using default parameters on ViCell and diluted to 20,000 cells/mL in assay media. RSV-A2-GFP virus was added to cells at 24,000 pfu/ml (MOI=1.2) and mixed by gentle inversion. 10 μL/well of 100% DMSO was dispensed as CellTiter-Glo (CTG) assay Max_E controls wells. The cells were dispensed at 50 μL/well using Bravo with 50 μL filtered tips into compound plates. Plates were covered with MicroClime lids, loaded with 7.5 mL of assay media to minimize evaporation, and were incubated at 37° C. and 5% CO2 for 96 hrs. Following incubation, distinct, GFP-expressing cells were counted using an Acumen imaging system with appropriate settings. A same-well CTG assay was performed by adding 10 μL/well reconstituted CellTiter-Glo reagent (Promega G7573) and plates were read on PerkinElmer Envision according to manufacturer's instructions. Raw data were loaded and analyzed in ActivityBase. Antiviral IC50 and cytotoxicity CC50 values were determined using a 4 parameter logistic fit based on the Levenberg-Marquardt algorithm. Model: 205-4 Parameter Logistic.

[2] = test system: hMPV-GFP virus; assay: microbe, parasite or virus in culture; type: cell-based, human metapneumovirus
Method: GFP expressing rgHMPV #3 p3 was generated in Dr. Buchholz's lab (Biacchesi S. et al., J Virol. 2007 June; 81(11): 6057-6067) and propagated in VERO cells (ATCC Cat #CCL-81) with a Multiplicity of Infection (MOI) of 0.1. Virus was harvested 4 days after infection by collecting cultured material and was freeze-thaw cycled in liquid nitrogen twice. Working virus stocks were generated from thawing frozen samples in 37° C. water bath, which were centrifuged at 218 g for 15 min at 4° C. 1/10 of 10×SPG (Biological Industries 06-3061-01-5A) were added and then mixed. The supernatant was aliquoted, frozen in liquid nitrogen, and then transferred to a −80° C. freezer for storage. Virus titer was determined by performing titration test in 96-well plates and calculate approximate virus titer using GFP event/well data.
Compound plates were prepared by dispensing compounds dissolved in DMSO into wells of a 384 well Corning 3985 polystyrene flat clear bottom optical imaging microplate (202.5 nL/well) using an ECHO acoustic dispenser. Each compound was tested in 10-point serial 3-fold dilution (typical final concentrations: 40,300 nM-2 nM). […] Continuous culture of VERO cells was maintained in complete culture media (OptiMEM supplemented with 2 mM GlutaMAX™ and 100 U/ml Penicillin-Streptomycin). To set up the assay, VERO cells were trypsinized with 0.25% Trypsin-EDTA until cells were dislodged, then cells were re-suspended with 1 mL FBS. Cells were spun down at 300 g for 5 minutes and cells were washed twice with culture media and counted using default parameters on ViCell. Cells were then diluted to 100,000 cells/mL (5,000 cells/50 μL) in complete culture media+TrypLE Select (80 μL/mL). hMPV-GFP virus was added to cells at 125,000 pfu/mL (MOI=1.25) and were mixed by gentle inversion. 10 μL/well of 100% DMSO was dispensed to CellTiter-Glo (CTG) assay Max_E controls wells. Cells were dispensed at 50 μL/well using Bravo and 50 μL filtered tips into compound plates. Plates were covered with MicroClime lids and loaded with 7.5 mL of assay media to minimize evaporation. Plates were lightly shaken for 10 minutes at room temperature and then incubated at 37° C. and 5% CO2 for 48 hrs. Following incubation, distinct GFP-expressing cells were counted using an Acumen imaging system with appropriate settings. A same-well CTG assay was performed by adding 10 μL/well reconstituted CellTiter-Glo reagent (Promega G7573) and plates were read on PerkinElmer Envision according to manufacturer's instructions. Raw data were loaded and analyzed in ActivityBase. Antiviral IC50 and cytotoxicity CC50 values were determined using a 4 parameter logistic fit based on the Levenberg-Marquardt algorithm. Model: 205-4 Parameter Logistic. • References: Wen Z, Citron M, Bett A J, Espeseth A S, Vora K A, Zhang L, DiStefano D J. Development and application of a higher throughput RSV plaque assay by immunofluorescent imaging. J Virol Methods. 2019 January; 263:88-95. doi: 10.1016/j.jviromet.2018.10.022. Epub 2018 Oct. 28. PMD: 30381239. • Biacchesi S, Murphy B R, Collins P L, Buchholz U J. Frequent frameshift and point mutations in the SH gene of human metapneumovirus passaged in vitro. J Virol. 2007 June; 81(11):6057-67. doi: 10.1128/JVL.00128-07. Epub 2007 Mar. 21. PMID: 17376897; PMCID: MC 1900297. Assay Data

[3] = human respiratory syncytial virus, Calu-1, 96 h, read-out: RSV EC50, Calu-1 cells infected with RSV-A2-GFP, 96 hrs, GFP-expressing cells counted
[4] = read-out: hMPV EC50, VERO cells infected with hMPV-GFP, 48 hrs, GFP-expressing cells counted
[5] = human metapneumovirus, Vero, 48 h, read-out: hMPV EC50, VERO cells infected with hMPV-GFP, 48 hrs, GFP-expressing cells counted
[6] = Calu-1 cells infected with RSV-A2-GFP, 96 hrs, GFP-expressing cells counted, read-out: RSV EC50
[7] = VERO cells infected with hMPV-GFP, 48 hrs, GFP-expressing cells counted, read-out: hMPV EC50
[8] = read-out: RSV EC50, Calu-1 cells infected with RSV-A2-GFP, 96 hrs, GFP-expressing cells counted

| Structure (SMILES) | EC50 [1, 3] [nM] | EC50 [2, 4] [nM] | EC50 [2, 5] [nM] | EC50 [1, 8] [nM] | further results |
| --- | --- | --- | --- | --- | --- |
| Cc1nn(-c2ncccn2)cc1C(=O)N1C[C@H]2[C@H](Oc3cc(C(C)(C)N)cc(-c4ccc(F)cc4F)n3)[C@@]2(C)C1 (single isomer, unassigned; enantiomer 1) [Example 109A] | < 10 | > 100 | – | – | – |
| Cn1nc(-c2ncccn2)cc1C(=O)N1C[C@H]2[C@H](Oc3cc(C(C)(C)N)cc(-c4ccc(C(F)(F)F)cc4)n3)[C@@]2(C)C1 (single isomer, unassigned; enantiomer 1) [Example 110A] | < 10 | 10 to 100 | – | – | – |
| Cc1nn(-c2ncccn2)cc1C(=O)N1C[C@H]2[C@H](Oc3cc(C(C)(C)N)cc(-c4ccc(C(F)(F)F)cc4)n3)[C@@]2(C)C1 (single isomer, unassigned; enantiomer 1) [Example 111A] | < 10 | > 100 | – | – | – |
| Cc1nn(-c2ncccn2)cc1C(=O)N1C[C@@H]2[C@H](C1)[C@H]2Oc1cc(C2(C)CCCN2)cc(-c2ccc(F)cc2)n1 (single isomer, unassigned; enantiomer 1) [Example 112] | < 10 | – | > 100 | – | – |
| Cc1nc(-c2ncccn2)sc1C(=O)N1C[C@@H]2[C@H](C1)[C@H]2Oc1cc(C(C)(N)CO)cc(-c2ccc(F)cc2)n1 (single isomer, unassigned; enantiomer 1) [Example 113A] | < 10 | – | > 100 | – | – |
| CCC(C)(N)c1cc(OC2[C@H]3CN(C(=O)c4cn(-c5ncccn5)nc4C)C[C@@H]23)nc(-c2ccc(F)cc2)c1 (single isomer, unassigned; enantiomer 1) [Example 116A] | – | – | – | – | EC50 [1, 6]: < 10 nM; EC50 [2, 7]: > 100 nM |
| CCc1nc(-c2ncccn2)sc1C(=O)N1C[C@@H]2[C@H]1C[C@H]2Oc1cc(C(C)(C)N)cc(-c2ccc(F)cc2)n1 (single isomer, unassigned; enantiomer 2) [Example 3] | < 10 | – | > 100 | – | – |
| Cn1nc(-c2ncccn2)cc1C(=O)N1C[C@@H]2[C@H]1C[C@H]2Oc1cc(C(C)(C)N)cc(-c2ccc(F)cc2)n1 (single isomer, unassigned; enantiomer 2) [Example 4] | 10 to 100 | – | > 100 | – | – |
| CCc1nn(-c2ncccn2)cc1C(=O)N1C[C@@H]2[C@H]1C[C@H]2Oc1cc(C(C)(C)N)cc(-c2ccc(F)cc2)n1 (single isomer, unassigned; enantiomer 2) [Example 5] | < 10 | – | > 100 | – | – |
| CC(C)(N)c1cc(O[C@@H]2C[C@@H]3[C@H]2CN3C(=O)c2cn(-c3ncccn3)nc2C2CC2)nc(-c2ccc(F)cc2)c1 (single isomer, unassigned; enantiomer 2) [Example 6] | < 10 | – | > 100 | – | – |
| CC(O)c1nn(-c2ncccn2)cc1C(=O)N1C[C@@H]2C(Oc3cc(C(C)(C)N)cc(-c4ccc(F)c(F)c4)n3)[C@@H]2C1 (single isomer, unassigned; enantiomer 2) [Example 96B] | – | – | – | – | EC50 [1, 6]: < 10 nM; EC50 [2, 7]: > 100 nM |
| Cc1nc(-c2ncccn2)sc1C(=O)N1C[C@H]2[C@H](Oc3cc(C(C)(C)N)cc(-c4ccc(F)cc4)n3)[C@@]2(C)C1 (single isomer, unassigned; enantiomer 2) [Example 103B] | < 10 | – | 10 to 100 | – | – |
| Cn1nc(-c2ncccn2)cc1C(=O)N1C[C@H]2[C@H](Oc3cc(C(C)(C)N)cc(-c4ccc(F)cc4)n3)[C@@]2(C)C1 (single isomer, unassigned; enantiomer 2) [Example 104B] | – | > 100 | – | < 10 | – |
| Cn1nc(-c2ncccn2)cc1C(=O)N1C[C@H]2[C@H](Oc3cc(C(C)(C)N)cc(-c4ccc(F)c(F)c4)n3)[C@@]2(C)C1 (single isomer, unassigned; enantiomer 2) [Example 105B] | – | 10 to 100 | – | < 10 | – |
| Cc1nn(-c2ncccn2)cc1C(=O)N1C[C@H]2[C@H](Oc3cc(C(C)(C)N)cc(-c4ccc(F)c(F)c4)n3)[C@@]2(C)C1 (single isomer, unassigned; enantiomer 2) [Example 106B] | – | 10 to 100 | – | < 10 | – |
| Cc1nn(-c2ncccn2)cc1C(=O)N1C[C@H]2[C@H](Oc3cc(C(C)(C)N)cc(-c4ccc(F)cc4)n3)[C@@]2(C)C1 (single isomer, unassigned; enantiomer 2) [Example 107B] | – | > 100 | – | < 10 | – |
| Cn1nc(-c2ncccn2)cc1C(=O)N1C[C@H]2[C@H](Oc3cc(C(C)(C)N)cc(-c4ccc(F)cc4F)n3)[C@@]2(C)C1 (single isomer, unassigned; enantiomer 2) [Example 108B] | – | > 100 | – | < 10 | – |
| Cc1nn(-c2ncccn2)cc1C(=O)N1C[C@H]2[C@H](Oc3cc(C(C)(C)N)cc(-c4ccc(F)cc4F)n3)[C@@]2(C)C1 (single isomer, unassigned; enantiomer 2) [Example 109B] | – | 10 to 100 | – | < 10 | – |
